Laboratory results from ChEMBL document CHEMBL5137046, “Discovery of novel 2,3-dihydro-1H-inden-1-ones as dual PDE4/AChE inhibitors with more potency against neuroinflammation for the treatment of Alzheimer's disease” (Eur J Med Chem, 2022).
Calls of active or inactive are those of the source. The rule behind the calls is not given here.

Target: Acetylcholinesterase (Electrophorus electricus) (UniProt O42275)
Test: Potency index, ratio of donepezil IC50 to test compound IC50 for inhibition of electric eel AChE using acetylthiocholine iodide as substrate preincubated with enzyme for 20 mins followed by substrate addition and measured after 10 mins by Ellman's method
Conditions: time 30.0 min

Chain of Acetylcholinesterase (Electrophorus electricus) (O42275 24-633 limits assumed): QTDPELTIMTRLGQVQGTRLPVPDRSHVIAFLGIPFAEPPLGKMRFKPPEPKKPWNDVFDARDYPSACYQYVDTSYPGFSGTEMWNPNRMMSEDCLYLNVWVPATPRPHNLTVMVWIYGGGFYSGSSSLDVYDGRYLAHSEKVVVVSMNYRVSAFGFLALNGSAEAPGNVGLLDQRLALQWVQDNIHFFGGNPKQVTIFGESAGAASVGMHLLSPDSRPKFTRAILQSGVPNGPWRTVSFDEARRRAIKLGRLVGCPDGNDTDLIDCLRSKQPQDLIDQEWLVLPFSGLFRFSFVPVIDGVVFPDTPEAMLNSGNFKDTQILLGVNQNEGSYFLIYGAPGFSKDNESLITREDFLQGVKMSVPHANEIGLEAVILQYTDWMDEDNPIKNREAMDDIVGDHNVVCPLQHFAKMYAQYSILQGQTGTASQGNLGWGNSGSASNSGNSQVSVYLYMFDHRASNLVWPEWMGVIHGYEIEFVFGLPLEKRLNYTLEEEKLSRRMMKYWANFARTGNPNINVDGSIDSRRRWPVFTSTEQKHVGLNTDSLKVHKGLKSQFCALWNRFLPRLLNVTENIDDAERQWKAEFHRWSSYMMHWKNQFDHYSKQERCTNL

| Compound | Ratio IC50 |
| --- | --- |
| COc1cc2c(cc1OCCN1CCCCC1)C(=O)C(Cc1cccnc1)C2 (centres undefined) | 19 |

Target: T1, 3',5'-cyclic-AMP phosphodiesterase 4D (Homo sapiens, UniProt Q08499)
Test: Inhibition of PDE4D7 (unknown origin)
Conditions: not given

T1 sequence (Q08499 whole entry): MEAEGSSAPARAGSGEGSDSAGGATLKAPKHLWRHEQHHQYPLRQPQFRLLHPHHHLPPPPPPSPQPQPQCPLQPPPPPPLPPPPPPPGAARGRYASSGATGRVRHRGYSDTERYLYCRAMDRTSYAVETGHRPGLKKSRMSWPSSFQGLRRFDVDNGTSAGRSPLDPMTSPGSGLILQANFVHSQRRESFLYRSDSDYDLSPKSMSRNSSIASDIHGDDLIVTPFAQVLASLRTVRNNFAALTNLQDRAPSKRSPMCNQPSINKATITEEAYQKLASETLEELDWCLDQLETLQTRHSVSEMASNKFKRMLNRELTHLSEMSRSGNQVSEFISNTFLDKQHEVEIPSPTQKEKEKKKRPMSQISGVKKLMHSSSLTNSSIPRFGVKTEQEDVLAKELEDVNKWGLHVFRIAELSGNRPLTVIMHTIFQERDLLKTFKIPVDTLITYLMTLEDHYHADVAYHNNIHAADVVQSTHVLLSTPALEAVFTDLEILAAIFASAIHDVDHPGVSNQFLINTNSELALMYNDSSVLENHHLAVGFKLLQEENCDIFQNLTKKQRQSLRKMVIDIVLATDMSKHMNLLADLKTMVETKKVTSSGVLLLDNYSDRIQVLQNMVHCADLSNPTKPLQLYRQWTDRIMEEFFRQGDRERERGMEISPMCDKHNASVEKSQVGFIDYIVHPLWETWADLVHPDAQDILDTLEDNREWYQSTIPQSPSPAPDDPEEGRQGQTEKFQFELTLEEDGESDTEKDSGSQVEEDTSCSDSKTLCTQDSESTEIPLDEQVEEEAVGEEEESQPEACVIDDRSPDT

| Compound | IC50 [µM] |
| --- | --- |
| COc1cc2c(cc1OCCN1CCCCC1)C(=O)C(Cc1ccncc1)C2 (centres undefined) | 16.4 |
| COc1cc2c(cc1OC1CCCC1)C(=O)C(Cc1ccccn1)C2 (centres undefined) | 8.7 |
| COc1cc2c(cc1OC1CCCC1)C(=O)/C(=C/c1ccncc1)C2 | 3.1 |
| COc1cc2c(cc1OCC(C)C)CC(Cc1ccncc1)C2=O (centres undefined) | 4.2 |
| COc1cc2c(cc1OC1CCCC1)C(=O)C(Cc1cccnc1)C2 (centres undefined) | 23 |
| COc1cc2c(cc1OC1CCCC1)C(=O)C(Cc1ccncc1)C2 (centres undefined) | 3.4 |
| COc1cc2c(cc1OC)C(=O)C(CC1CCN(Cc3ccccc3)CC1)C2 (centres undefined) [DONEPEZIL] | 36 |
| COc1cc2c(cc1OC1CCCC1)C(=O)/C(=C/c1cccnc1)C2 | 4.1 |
| COc1cc2c(cc1OCC1CC1)C(=O)C(Cc1ccncc1)C2 (centres undefined) | 6.3 |
| COc1cc2c(cc1OC1CCCC1)CC(Cc1ccncc1)C2=O (centres undefined) | 5.3 |
| COc1cc2c(cc1OCCN1CCCCC1)C(=O)C(Cc1cccnc1)C2 (centres undefined) | 1.88 |

Test system: BV-2
Test: Cytotoxicity against mouse BV-2 cells assessed as reduction in cell viability at 20 uM by MTT assay
Assay type: toxicity, cell-based
Conditions: bv-2, 20 µM

| Compound | Activity |
| --- | --- |
| COc1cc2c(cc1OCCN1CCCCC1)C(=O)C(Cc1cccnc1)C2 (centres undefined) | Non-Toxic |

Target: cGMP-inhibited 3',5'-cyclic phosphodiesterase 3B (Homo sapiens, UniProt Q13370)
Test: Inhibition of PDE3B (unknown origin)
Conditions: not given

| Compound | IC50 [µM] |
| --- | --- |
| COc1cc2c(cc1OCCN1CCCCC1)C(=O)C(Cc1cccnc1)C2 (centres undefined) | > 50 |

Target: Cholinesterase (Equus caballus, UniProt P81908)
Test: Inhibition of horse serum BuChE using butyrylthiocholine iodide as substrate preincubated with enzyme for 20 mins followed by substrate addition and measured after 10 mins by Ellman's method
Assay type: cell-free
Conditions: not given

Chain of Cholinesterase (P81908 whole entry): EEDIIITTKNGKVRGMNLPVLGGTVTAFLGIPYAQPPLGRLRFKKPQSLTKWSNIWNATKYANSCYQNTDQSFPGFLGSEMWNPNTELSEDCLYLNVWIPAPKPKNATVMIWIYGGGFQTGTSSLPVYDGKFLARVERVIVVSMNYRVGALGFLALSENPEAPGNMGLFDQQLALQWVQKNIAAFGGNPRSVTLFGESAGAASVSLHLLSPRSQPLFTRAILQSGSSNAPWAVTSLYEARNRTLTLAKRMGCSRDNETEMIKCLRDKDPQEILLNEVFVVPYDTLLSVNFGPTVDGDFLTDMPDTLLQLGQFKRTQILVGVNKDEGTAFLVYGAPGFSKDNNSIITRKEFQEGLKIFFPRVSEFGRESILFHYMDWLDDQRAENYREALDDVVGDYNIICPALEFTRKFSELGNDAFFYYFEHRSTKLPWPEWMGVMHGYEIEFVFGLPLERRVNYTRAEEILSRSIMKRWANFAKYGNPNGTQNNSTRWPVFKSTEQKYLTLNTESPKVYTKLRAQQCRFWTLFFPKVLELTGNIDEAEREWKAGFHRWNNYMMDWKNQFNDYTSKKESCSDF

| Compound | IC50 [µM] |
| --- | --- |
| COc1cc2c(cc1OCCN1CCCCC1)C(=O)C(Cc1cccnc1)C2 (centres undefined) | 36.9 |

Target: T1, 3',5'-cyclic-AMP phosphodiesterase 4D
Test: Inhibition of PDE4D7 (unknown origin) at 10 uM
Conditions: not given

| Compound | inhibition [%] |
| --- | --- |
| COc1ccc(CC2Cc3cc(OC)c(OCCN4CCCCC4)cc3C2=O)cc1 (centres undefined) | < 10 |
| COc1cc2c(cc1OCC(C)C)C(=O)C(CC1CCN(Cc3ccccc3)CC1)C2 (centres undefined) | < 10 |
| COc1cc2c(cc1OCC(C)C)CC(CC1CCNCC1)C2=O (centres undefined) | < 10 |
| COc1cc2c(cc1OCC1CC1)CC(Cc1ccncc1)C2=O (centres undefined) | 31 |
| COc1cc2c(cc1OC1CCCC1)C(=O)C(Cc1cccnc1)C2 (centres undefined) | 34 |

Target: High affinity 3',5'-cyclic-AMP phosphodiesterase 7A (Homo sapiens, UniProt Q13946)
Test: Inhibition of PDE7A (unknown origin)
Conditions: not given

Chain of High affinity 3',5'-cyclic-AMP phosphodiesterase 7A (Q13946 whole entry): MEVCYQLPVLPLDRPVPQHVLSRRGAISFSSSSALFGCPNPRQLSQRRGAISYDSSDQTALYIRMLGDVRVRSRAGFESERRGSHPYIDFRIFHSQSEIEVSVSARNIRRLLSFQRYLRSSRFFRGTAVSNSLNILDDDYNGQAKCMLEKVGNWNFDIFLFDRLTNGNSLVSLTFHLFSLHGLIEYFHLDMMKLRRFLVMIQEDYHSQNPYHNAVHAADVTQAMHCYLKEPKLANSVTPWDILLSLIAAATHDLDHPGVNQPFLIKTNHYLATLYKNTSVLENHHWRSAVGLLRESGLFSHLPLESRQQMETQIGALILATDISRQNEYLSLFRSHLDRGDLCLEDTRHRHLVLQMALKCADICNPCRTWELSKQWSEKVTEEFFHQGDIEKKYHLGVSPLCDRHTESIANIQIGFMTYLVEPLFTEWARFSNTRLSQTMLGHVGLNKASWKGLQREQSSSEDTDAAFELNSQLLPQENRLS

| Compound | IC50 [µM] |
| --- | --- |
| COc1cc2c(cc1OCCN1CCCCC1)C(=O)C(Cc1cccnc1)C2 (centres undefined) | > 50 |

Test system: BV-2
Test: Anti-neuroinflammatory activity against LPS-stimulated mouse BV-2 cells assessed as reduction in TNF-alpha production pretreated for 1 hr with compound followed by LPS treatment for 24 hrs by ELISA
Assay type: functional, cell-based
Conditions: dose 5-20 µM, time 25.0 hrs, DDE = dose-dependent effect

| Compound | Activity |
| --- | --- |
| COc1cc2c(cc1OCCN1CCCCC1)C(=O)C(Cc1cccnc1)C2 (centres undefined) | Dde |

Test system: Mus musculus
Test: Anti-neuroinflammatory activity against aggregated Abeta(25-35)-induced Alzheimer's disease C57BL/6 mouse model assessed as inhibition of TNF-alpha production in hippocampus at 1 mg/kg, iv measured after 2 hrs in presence of 1 mg/kg, iv rolipram by ELISA
Assay type: functional, organism-based
Conditions: not given

| Compound | Activity |
| --- | --- |
| COc1cc2c(cc1OC)C(=O)C(CC1CCN(Cc3ccccc3)CC1)C2 (centres undefined) [DONEPEZIL] | Active |

Target: cGMP-dependent 3',5'-cyclic phosphodiesterase (Homo sapiens, UniProt O00408)
Test: Inhibition of PDE2A (unknown origin)
Conditions: not given

Chain of cGMP-dependent 3',5'-cyclic phosphodiesterase (O00408 whole entry): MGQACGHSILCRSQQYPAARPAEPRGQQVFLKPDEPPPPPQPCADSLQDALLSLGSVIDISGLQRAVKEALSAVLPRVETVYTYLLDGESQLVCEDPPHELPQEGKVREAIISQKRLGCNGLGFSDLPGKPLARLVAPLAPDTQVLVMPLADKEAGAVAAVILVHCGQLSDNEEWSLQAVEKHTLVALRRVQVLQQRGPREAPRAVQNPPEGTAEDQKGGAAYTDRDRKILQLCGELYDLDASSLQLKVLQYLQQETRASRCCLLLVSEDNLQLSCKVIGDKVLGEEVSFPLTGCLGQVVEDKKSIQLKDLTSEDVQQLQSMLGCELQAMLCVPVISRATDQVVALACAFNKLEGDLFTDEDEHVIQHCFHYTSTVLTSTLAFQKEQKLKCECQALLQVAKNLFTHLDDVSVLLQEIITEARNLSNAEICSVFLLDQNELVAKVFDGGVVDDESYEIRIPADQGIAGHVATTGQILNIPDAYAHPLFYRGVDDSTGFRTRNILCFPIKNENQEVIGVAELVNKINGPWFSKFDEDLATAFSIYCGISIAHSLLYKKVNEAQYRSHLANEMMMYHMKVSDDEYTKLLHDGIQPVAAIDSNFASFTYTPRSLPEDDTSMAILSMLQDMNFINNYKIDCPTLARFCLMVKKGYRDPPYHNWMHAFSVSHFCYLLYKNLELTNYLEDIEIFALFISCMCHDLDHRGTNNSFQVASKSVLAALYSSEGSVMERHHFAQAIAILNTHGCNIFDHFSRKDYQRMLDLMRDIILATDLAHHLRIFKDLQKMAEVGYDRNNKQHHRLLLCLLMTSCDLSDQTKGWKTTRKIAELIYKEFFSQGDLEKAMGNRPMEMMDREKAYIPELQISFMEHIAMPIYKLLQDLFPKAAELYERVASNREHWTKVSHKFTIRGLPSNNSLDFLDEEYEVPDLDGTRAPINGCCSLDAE

| Compound | IC50 [µM] |
| --- | --- |
| COc1cc2c(cc1OCCN1CCCCC1)C(=O)C(Cc1cccnc1)C2 (centres undefined) | > 50 |

Test system: PC-12
Test: Neuroprotective activity against rat PC-12 cells assessed as inhibition of Abeta(25-35)-induced cytotoxicity by measuring increase in cell viability at 10 to 20 uM incubated for 24 hrs by MTT assay
Assay type: functional, cell-based
Conditions: dose 10-20 µM

| Compound | Activity |
| --- | --- |
| COc1cc2c(cc1OCCN1CCCCC1)C(=O)C(Cc1cccnc1)C2 (centres undefined) | Active |

Target: Dual specificity calcium/calmodulin-dependent 3',5'-cyclic nucleotide phosphodiesterase 1A (Homo sapiens, UniProt P54750)
Test: Inhibition of PDE1A (unknown origin)
Conditions: not given

| Compound | IC50 [µM] |
| --- | --- |
| COc1cc2c(cc1OCCN1CCCCC1)C(=O)C(Cc1cccnc1)C2 (centres undefined) | > 50 |

Target: cGMP-specific 3',5'-cyclic phosphodiesterase (Homo sapiens, UniProt O76074)
Test: Inhibition of PDE5A (unknown origin)
Conditions: not given

| Compound | IC50 [µM] |
| --- | --- |
| COc1cc2c(cc1OCCN1CCCCC1)C(=O)C(Cc1cccnc1)C2 (centres undefined) | > 50 |

Test system: not listed separately
Test: Neurotoxicity against rat PC-12 cells assessed as reduction in cell viability up to 20 uM incubated for 24 hrs by MTT assay
Assay type: toxicity, cell-based
Conditions: pc-12, 24 h

| Compound | Activity |
| --- | --- |
| COc1cc2c(cc1OCCN1CCCCC1)C(=O)C(Cc1cccnc1)C2 (centres undefined) | Non-Toxic |

Target: High affinity cGMP-specific 3',5'-cyclic phosphodiesterase 9A (Homo sapiens, UniProt O76083)
Test: Inhibition of PDE9A2 (unknown origin)
Conditions: not given

Chain of High affinity cGMP-specific 3',5'-cyclic phosphodiesterase 9A (O76083 whole entry): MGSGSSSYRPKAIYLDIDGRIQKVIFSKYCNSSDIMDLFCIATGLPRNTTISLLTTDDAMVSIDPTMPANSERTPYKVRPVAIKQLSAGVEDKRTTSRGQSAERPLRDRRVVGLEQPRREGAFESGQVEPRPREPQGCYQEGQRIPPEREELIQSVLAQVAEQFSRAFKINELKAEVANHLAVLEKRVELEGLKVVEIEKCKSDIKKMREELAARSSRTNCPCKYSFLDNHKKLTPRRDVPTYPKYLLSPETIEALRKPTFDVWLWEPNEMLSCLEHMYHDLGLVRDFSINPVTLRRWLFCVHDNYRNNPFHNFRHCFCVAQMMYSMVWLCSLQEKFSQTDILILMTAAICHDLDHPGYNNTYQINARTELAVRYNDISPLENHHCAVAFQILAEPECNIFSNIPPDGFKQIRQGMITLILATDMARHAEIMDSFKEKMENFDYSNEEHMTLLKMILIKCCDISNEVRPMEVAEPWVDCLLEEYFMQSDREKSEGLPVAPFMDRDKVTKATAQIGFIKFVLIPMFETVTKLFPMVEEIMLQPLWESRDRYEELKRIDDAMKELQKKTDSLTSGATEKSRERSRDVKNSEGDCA

| Compound | IC50 [µM] |
| --- | --- |
| COc1cc2c(cc1OCCN1CCCCC1)C(=O)C(Cc1cccnc1)C2 (centres undefined) | > 50 |

Test system: BV-2
Test: Anti-neuroinflammatory activity against LPS-stimulated mouse BV-2 cells assessed as reduction in TNF-alpha production at 20 uM pretreated for 1 hr with compound followed by LPS treatment for 24 hrs by ELISA
Assay type: functional, cell-based
Conditions: time 25.0 hrs

| Compound | Activity |
| --- | --- |
| COc1cc2c(cc1OC)C(=O)C(CC1CCN(Cc3ccccc3)CC1)C2 (centres undefined) [DONEPEZIL] | Active |
| COc1cc2c(cc1OCCN1CCCCC1)C(=O)C(Cc1cccnc1)C2 (centres undefined) | Active |

Test system: not listed separately
Test: Inhibition of […] (unknown origin)
Design: species or system Homo sapiens
Conditions: not given

| Compound | IC50 [µM] |
| --- | --- |
| COc1cc2c(cc1OCCN1CCCCC1)C(=O)C(Cc1cccnc1)C2 (centres undefined) | > 50 |

Target: Acetylcholinesterase (Electrophorus electricus, UniProt O42275)
Test: Inhibition of electric eel AChE using acetylthiocholine iodide as substrate preincubated with enzyme for 20 mins followed by substrate addition and measured after 10 mins by Ellman's method
Conditions: not given

Chain of Acetylcholinesterase (O42275 whole entry): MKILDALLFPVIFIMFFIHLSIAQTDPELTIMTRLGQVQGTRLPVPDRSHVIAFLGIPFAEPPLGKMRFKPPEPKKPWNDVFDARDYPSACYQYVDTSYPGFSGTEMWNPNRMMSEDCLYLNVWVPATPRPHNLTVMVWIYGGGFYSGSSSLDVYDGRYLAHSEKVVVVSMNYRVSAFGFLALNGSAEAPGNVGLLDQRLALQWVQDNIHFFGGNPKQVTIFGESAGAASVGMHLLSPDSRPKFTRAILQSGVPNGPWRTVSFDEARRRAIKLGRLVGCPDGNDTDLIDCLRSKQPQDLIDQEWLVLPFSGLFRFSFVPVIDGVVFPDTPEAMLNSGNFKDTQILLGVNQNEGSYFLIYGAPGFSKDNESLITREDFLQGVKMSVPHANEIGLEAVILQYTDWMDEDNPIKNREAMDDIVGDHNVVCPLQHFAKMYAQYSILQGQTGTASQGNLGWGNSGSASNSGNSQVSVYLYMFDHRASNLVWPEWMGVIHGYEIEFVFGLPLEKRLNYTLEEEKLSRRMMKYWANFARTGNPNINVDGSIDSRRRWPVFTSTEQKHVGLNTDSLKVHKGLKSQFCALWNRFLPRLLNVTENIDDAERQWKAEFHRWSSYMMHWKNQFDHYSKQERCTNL

| Compound | IC50 [µM] |
| --- | --- |
| COc1cc2c(cc1OCCN1CCCCC1)C(=O)C(Cc1ccncc1)C2 (centres undefined) | 0.07 |
| COc1ccc(CC2Cc3cc(OC)c(OCCN4CCCCC4)cc3C2=O)cc1 (centres undefined) | 0.81 |
| COc1cc2c(cc1OCC(C)C)C(=O)C(CC1CCN(Cc3ccccc3)CC1)C2 (centres undefined) | 0.5 |
| COc1cc2c(cc1OC1CCCC1)C(=O)C(Cc1ccccn1)C2 (centres undefined) | 38.3 |
| COc1cc2c(cc1OC1CCCC1)C(=O)/C(=C/c1ccncc1)C2 | 11.4 |
| COc1cc2c(cc1OCC(C)C)CC(Cc1ccncc1)C2=O (centres undefined) | 64.3 |
| COc1cc2c(cc1OC1CCCC1)C(=O)C(Cc1ccncc1)C2 (centres undefined) | 55.9 |
| COc1cc2c(cc1OC1CCCC1)C(=O)/C(=C/c1cccnc1)C2 | 8.4 |
| COc1cc2c(cc1OCC1CC1)C(=O)C(Cc1ccncc1)C2 (centres undefined) | 35.9 |
| COc1cc2c(cc1OC1CCCC1)CC(Cc1ccncc1)C2=O (centres undefined) | 30.5 |
| COc1cc2c(cc1OCCN1CCCCC1)C(=O)C(Cc1cccnc1)C2 (centres undefined) | 0.28 |

Test system: Mus musculus
Test: Anti-neuroinflammatory activity against aggregated Abeta(25-35)-induced Alzheimer's disease C57BL/6 mouse model assessed as inhibition of TNF-alpha production in hippocampus at 2 mg/kg, iv measured after 2 hrs by ELISA
Assay type: functional, organism-based
Conditions: not given

| Compound | Activity |
| --- | --- |
| COc1cc2c(cc1OC)C(=O)C(CC1CCN(Cc3ccccc3)CC1)C2 (centres undefined) [DONEPEZIL] | Active |
| COc1cc2c(cc1OCCN1CCCCC1)C(=O)C(Cc1cccnc1)C2 (centres undefined) | Active |

Target: High affinity cAMP-specific and IBMX-insensitive 3',5'-cyclic phosphodiesterase 8A (Homo sapiens, UniProt O60658)
Test: Inhibition of PDE8A1 (unknown origin)
Conditions: not given

| Compound | IC50 [µM] |
| --- | --- |
| COc1cc2c(cc1OCCN1CCCCC1)C(=O)C(Cc1cccnc1)C2 (centres undefined) | > 50 |

Test system: PC-12
Test: Neuroprotective activity against rat PC-12 cells assessed as inhibition of Abeta(25-35)-induced cytotoxicity by measuring increase in cell viability at 10 uM incubated for 24 hrs by MTT assay
Assay type: functional, cell-based
Conditions: not given

| Compound | Activity |
| --- | --- |
| COc1cc2c(cc1OC)C(=O)C(CC1CCN(Cc3ccccc3)CC1)C2 (centres undefined) [DONEPEZIL] | Active |

Test system: Mus musculus
Test: In vivo inhibition of AChE in hippocampus of aggregated Abeta(25-35)-induced Alzheimer's disease C57BL/6 mouse model at 2 mg/kg, iv measured after 2 hrs by Ellman's method
Assay type: functional, organism-based
Conditions: not given

| Compound | inhibition |
| --- | --- |
| COc1cc2c(cc1OC)C(=O)C(CC1CCN(Cc3ccccc3)CC1)C2 (centres undefined) [DONEPEZIL] | Active |
| COc1cc2c(cc1OCCN1CCCCC1)C(=O)C(Cc1cccnc1)C2 (centres undefined) | Active |

Target: Acetylcholinesterase (Electrophorus electricus) (UniProt O42275)
Test: Inhibition of electric eel AChE using acetylthiocholine iodide as substrate at 10 uM preincubated with enzyme for 20 mins followed by substrate addition and measured after 10 mins by Ellman's method
Conditions: time 30.0 min

| Compound | inhibition [%] |
| --- | --- |
| COc1cc2c(cc1OC1CCCC1)C(=O)C(Cc1ccccn1)C2 (centres undefined) | 11 |
| COc1cc2c(cc1OCC(C)C)CC(CC1CCNCC1)C2=O (centres undefined) | < 10 |
| COc1cc2c(cc1OCC1CC1)CC(Cc1ccncc1)C2=O (centres undefined) | 23 |
| COc1cc2c(cc1OC1CCCC1)C(=O)/C(=C/c1ccncc1)C2 | 51 |
| COc1cc2c(cc1OCC(C)C)CC(Cc1ccncc1)C2=O (centres undefined) | 15 |
| COc1cc2c(cc1OC1CCCC1)C(=O)C(Cc1cccnc1)C2 (centres undefined) | 26 |
| COc1cc2c(cc1OC1CCCC1)C(=O)C(Cc1ccncc1)C2 (centres undefined) | 15 |
| COc1cc2c(cc1OC1CCCC1)C(=O)/C(=C/c1cccnc1)C2 | 56 |
| COc1cc2c(cc1OCC1CC1)C(=O)C(Cc1ccncc1)C2 (centres undefined) | 25 |
| COc1cc2c(cc1OC1CCCC1)CC(Cc1ccncc1)C2=O (centres undefined) | 27 |
